From the supplement of paper PMC10307832

Compound: CC1=C(N=C(N=C1N)[C@H](CC(=O)N)NC[C@@H](C(=O)N)N)C(=O)N[C@@H]([C@H](C2=CN=CN2)OC3C(C(C(C(O3)CO)O)O)OC4C(C(C(C(O4)CO)O)OC(=O)N)O)C(=O)N[C@H](C)[C@H]([C@H](C)C(=O)N[C@@H]([C@@H](C)O)C(=O)NCCC5=NC(=CS5)C6=NC(=CS6)C(=O)NCCC[S+](C)C)O [Bleomycin] + CCNC(=O)c1noc(-c2cc(C(C)C)c(O)cc2O)c1-c1ccc(CN2CCOCC2)cc1 [Luminespib] (partner 0.01 µM)
Test: relative viability (nuclei count vs DMSO), 5 days (fraction); higher = more cells survive
Conditions: first compound 0.1 µM; main component drawn
Outline: (§1)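 Relative viability is defined as nuclei in treated wells over nuclei in vehicle wells. Duplicate plates were run and medians reported. Lung cancer cell lines in 1536-well plates were dosed by pin tool one day after seeding, with one drug or with a fixed anchor-drug dose plus five library-drug doses (not always all listed) in √10 steps, and nuclei were counted after 5 days.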

In order of rising relative viability:
1. NCI-H3122  0.101
2. COR-L23  0.258
3. HCC-44  0.261
4. LOU-NH91  0.307
5. NCI-H1563  0.479
6. ChaGo-K-1  0.502
7. NCI-H1792  0.553
8. COR-L 105  0.562
9. NCI-H2170  0.593
10. SK-MES-1  0.641
11. H3255  0.652
12. NCI-H2342  0.693

Same assay, conditions: first compound 0.3162 µM; main component drawn

In order of falling relative viability:
1. NCI-H1993  0.57
2. NCI-H2126  0.566
3. COR-L 105  0.555
4. NCI-H2342  0.523
5. H3255  0.52
6. LCLC-103H  0.496
7. NCI-H1563  0.487
8. NCI-H1666  0.395
9. NCI-H2170  0.355
10. EMC-BAC-2  0.348
11. NCI-H1623  0.343
12. NCI-H596  0.335
13. NCI-H522  0.319
14. NCI-H2085  0.314
15. ChaGo-K-1  0.293
16. LOU-NH91  0.282
17. SK-MES-1  0.244
18. NCI-H1792  0.239
19. HCC-44  0.187
20. NCI-H1650  0.18
21. LK-2  0.161
22. NCI-H2228  0.128
23. NCI-H2087  0.124
24. COR-L23  0.122
25. NCI-H838  0.119
26. PC-14  0.116
27. NCI-H3122  0.111
28. NCI-H647  0.0882

Same assay, conditions: first compound 1 µM; main component drawn

In order of falling relative viability:
1. NCI-H2126  0.551
2. NCI-H2342  0.525
3. NCI-H2170  0.515
4. NCI-H1563  0.465
5. NCI-H1666  0.436
6. NCI-H522  0.414
7. NCI-H1993  0.41
8. COR-L 105  0.386
9. NCI-H596  0.377
10. H3255  0.351
11. LCLC-103H  0.333
12. NCI-H1623  0.31
13. LOU-NH91  0.298
14. NCI-H2085  0.279
15. NCI-H1792  0.251
16. EMC-BAC-2  0.244
17. HCC-44  0.239
18. ChaGo-K-1  0.205
19. SK-MES-1  0.202
20. NCI-H1650  0.188
21. LK-2  0.169
22. NCI-H838  0.162
23. NCI-H2228  0.15
24. NCI-H2087  0.142
25. PC-14  0.124
26. COR-L23  0.122
27. NCI-H647  0.0947
28. NCI-H3122  0.0599

Compound: CC1=C(N=C(N=C1N)[C@H](CC(=O)N)NC[C@@H](C(=O)N)N)C(=O)N[C@@H]([C@H](C2=CN=CN2)OC3C(C(C(C(O3)CO)O)O)OC4C(C(C(C(O4)CO)O)OC(=O)N)O)C(=O)N[C@H](C)[C@H]([C@H](C)C(=O)N[C@@H]([C@@H](C)O)C(=O)NCCC5=NC(=CS5)C6=NC(=CS6)C(=O)NCCC[S+](C)C)O [Bleomycin] + O=C(CCCCCCC(=O)Nc1ccccc1)NO [Vorinostat] (partner 1 µM)
Test: as above
Conditions: first compound 0.01 µM; main component drawn
Outline: as §1

In order of rising relative viability:
1. NCI-H1650  0.36
2. NCI-H838  0.571
3. NCI-H522  0.979
